The values below come from patent publication US10144706B2 (BRISTOL-MYERS SQUIBB COMPANY, priority 2016, dated 2018).

The target of this assay is T1, PD-1/PD-L1 interaction (PD-1-Ig / PD-L1-His) (Homo sapiens, UniProt Q9NZQ7).
T1 construct: hPDL1(18-239)-TVMV-His; TVMV protease site linker (C); made in house; host or cells: HEK293T
The assay can be described thus: PD-1/PD-L1 Homogenous Time-Resolved Fluorescence (HTRF) binding assay. Particulars: IC50 range class; PD-L1-His 10 nM, PD-1-Ig 20 nM; read-out: Range or IC50. The method in brief:
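Human PD-L1-His (10 nM final) was pre-incubated with inhibitor for 15 min, then PD-1-Ig (20 nM final) was added for a further 15 min in dPBS with 0.1% BSA and 0.05% Tween-20. Binding was detected by HTRF using Eu-cryptate anti-Ig (1 nM) and APC anti-His (20 nM).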

T1 sequence (Q9NZQ7 with tags, fused parts or gaps): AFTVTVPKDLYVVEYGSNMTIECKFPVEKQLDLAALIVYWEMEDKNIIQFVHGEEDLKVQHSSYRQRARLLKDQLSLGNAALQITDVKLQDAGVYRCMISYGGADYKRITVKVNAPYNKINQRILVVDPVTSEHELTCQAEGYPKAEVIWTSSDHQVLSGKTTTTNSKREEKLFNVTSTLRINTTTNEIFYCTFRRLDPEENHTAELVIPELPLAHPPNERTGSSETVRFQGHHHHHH

As a reminder, the IC50 is the midpoint of a concentration-inhibition curve. As for `Cc1c(COc2cc(OCc3ccc(-n4cccn4)nc3)c(CNC(CO)CO)cc2Cl)cccc1-c1cccc(COc2cc(OCc3ccc(-n4cccn4)nc3)c(CNC(CO)CO)cc2Cl)c1C` [Example 5019, 2,2′-((((((2,2′-dimethyl-[1,1′-biphenyl]-3,3′-diyl)bis(methylene))bis(oxy))bis(2-((6-(1H-pyrazol-1-yl)pyridin-3-yl)methoxy)-5-chloro-4,1-phenylene))bis(methylene))bis(azanediyl))bis(propane-1,3-diol)], the IC50 fell in the range of 20.1 to 90 nM.

Turning to `Cc1c(COc2cc(OCc3ccc(-n4cccn4)nc3)c(CNC(C)(CO)CO)cc2Cl)cccc1-c1cccc(COc2cc(OCc3ccc(-n4cccn4)nc3)c(CNC(C)(CO)CO)cc2Cl)c1C` [Example 5020, 2,2′-((((((2,2′-dimethyl-[1,1′-biphenyl]-3,3′-diyl)bis(methylene))bis(oxy))bis(2-((6-(1H-pyrazol-1-yl)pyridin-3-yl)methoxy)-5-chloro-4,1-phenylene))bis(methylene))bis(azanediyl))bis(2-methylpropane-1,3-diol)], the IC50 fell in the range of 0.04 to 20 nM.

With `Cc1c(COc2cc(OCc3ccc(-n4cccn4)nc3)c(CN3CCCC[C@H]3C(=O)O)cc2Cl)cccc1-c1cccc(COc2cc(OCc3ccc(-n4cccn4)nc3)c(CN3CCCC[C@H]3C(=O)O)cc2Cl)c1C` [Example 5021, (2S,2′S)-1,1′-(((((2,2′-dimethyl-[1,1′-biphenyl]-3,3′-diyl)bis(methylene))bis(oxy))bis(2-((6-(1H-pyrazol-1-yl)pyridin-3-yl)methoxy)-5-chloro-4,1-phenylene))bis(methylene))bis(piperidine-2-carboxylic acid)], the IC50 lay in the range of 0.04 to 20 nM.

As for `Cc1c(COc2cc(OCc3ccc(-n4cccn4)nc3)c(CN[C@@](C)(CO)C(=O)O)cc2Cl)cccc1-c1cccc(COc2cc(OCc3ccc(-n4cccn4)nc3)c(CN[C@@](C)(CO)C(=O)O)cc2Cl)c1C` [Example 5022, (2S,2′S)-2,2′-((((((2,2′-dimethyl-[1,1′-biphenyl]-3,3′-diyl)bis(methylene))bis(oxy))bis(2-((6-(1H-pyrazol-1-yl)pyridin-3-yl)methoxy)-5-chloro-4,1-phenylene))bis(methylene))bis(azanediyl))bis(3-hydroxy-2-methylpropanoic acid)], the IC50 lay within 0.04 to 20 nM.

On to `Cc1c(COc2cc(OCc3ccc(-n4cccn4)nc3)c(CN(C)C(C)(CO)CO)cc2Cl)cccc1-c1cccc(COc2cc(OCc3ccc(-n4cccn4)nc3)c(CN(C)C(C)(CO)CO)cc2Cl)c1C` [Example 5023, 2,2′-((((((2,2′-dimethyl-[1,1′-biphenyl]-3,3′-diyl)bis(methylene))bis(oxy))bis(2-((6-(1H-pyrazol-1-yl)pyridin-3-yl)methoxy)-5-chloro-4,1-phenylene))bis(methylene))bis(methylazanediyl))bis(2-methylpropane-1,3-diol)], for which the IC50 was 20.1 to 90 nM.

On to `Cc1c(COc2cc(OCc3ccc(-n4cccn4)nc3)c(CN(C)C(C)(C)C(=O)O)cc2Cl)cccc1-c1cccc(COc2cc(OCc3ccc(-n4cccn4)nc3)c(CN(C)C(C)(C)C(=O)O)cc2Cl)c1C` [Example 5024, 2,2′-((((((2,2′-dimethyl-[1,1′-biphenyl]-3,3′-diyl)bis(methylene))bis(oxy))bis(2-((6-(1H-pyrazol-1-yl)pyridin-3-yl)methoxy)-5-chloro-4,1-phenylene))bis(methylene))bis(methylazanediyl))bis(2-methylpropanoic acid)], for which the IC50 fell in the range of 0.04 to 20 nM.

On to `Cc1c(COc2cc(OCc3ccc(-n4cccn4)nc3)c(CN(C)[C@@H](CCO)C(=O)O)cc2Cl)cccc1-c1cccc(COc2cc(OCc3ccc(-n4cccn4)nc3)c(CN(C)[C@@H](CCO)C(=O)O)cc2Cl)c1C` [Example 5025, (2S,2′S)-2,2′-((((((2,2′-dimethyl-[1,1′-biphenyl]-3,3′-diyl)bis(methylene))bis(oxy))bis(2-((6-(1H-pyrazol-1-yl)pyridin-3-yl)methoxy)-5-chloro-4,1-phenylene))bis(methylene))bis(methylazanediyl))bis(4-hydroxybutanoic acid)], for which the half-maximal inhibitory concentration (IC50) was in the range of 0.04 to 20 nM.

For `CCC[C@@H](C(=O)O)N(C)Cc1cc(Cl)c(OCc2cccc(-c3cccc(COc4cc(OCc5ccc(-n6cccn6)nc5)c(CN(C)[C@@H](CCC)C(=O)O)cc4Cl)c3C)c2C)cc1OCc1ccc(-n2cccn2)nc1` [Example 5026, (2S,2′S)-2,2′-((((((2,2′-dimethyl-[1,1′-biphenyl]-3,3′-diyl)bis(methylene))bis(oxy))bis(2-((6-(1H-pyrazol-1-yl)pyridin-3-yl)methoxy)-5-chloro-4,1-phenylene))bis(methylene))bis(methylazanediyl))dipentanoic acid], the IC50 fell in the range of 0.04 to 20 nM.

Turning to `Cc1c(COc2cc(OCc3ccc(-n4cccn4)nc3)c(CN(C)[C@@](C)(CO)C(=O)O)cc2Cl)cccc1-c1cccc(COc2cc(OCc3ccc(-n4cccn4)nc3)c(CN(C)[C@@](C)(CO)C(=O)O)cc2Cl)c1C` [Example 5027, (2S,2′S)-2,2′-((((((2,2′-dimethyl-[1,1′-biphenyl]-3,3′-diyl)bis(methylene))bis(oxy))bis(2-((6-(1H-pyrazol-1-yl)pyridin-3-yl)methoxy)-5-chloro-4,1-phenylene))bis(methylene))bis(methylazanediyl))bis(3-hydroxy-2-methylpropanoic acid)], the IC50 was in the range of 0.04 to 20 nM.

For `Cc1c(COc2cc(OCc3ccc(-n4cccn4)nc3)c(CN(C)C(CO)CO)cc2Cl)cccc1-c1cccc(COc2cc(OCc3ccc(-n4cccn4)nc3)c(CN(C)C(CO)CO)cc2Cl)c1C` [Example 5028, 2,2′-((((((2,2′-dimethyl-[1,1′-biphenyl]-3,3′-diyl)bis(methylene))bis(oxy))bis(2-((6-(1H-pyrazol-1-yl)pyridin-3-yl)methoxy)-5-chloro-4,1-phenylene))bis(methylene))bis(methylazanediyl))bis(propane-1,3-diol)], the IC50 lay within 90.1 to 1000 nM.

On to `Cc1c(COc2cc(OCc3ccc(-n4cccn4)nc3)c(CN(C)[C@H](C(=O)O)[C@@H](C)O)cc2Cl)cccc1-c1cccc(COc2cc(OCc3ccc(-n4cccn4)nc3)c(CN(C)[C@H](C(=O)O)[C@@H](C)O)cc2Cl)c1C` [Example 5029, (2S,2′S,3R,3′R)-2,2′-((((((2,2′-dimethyl-[1,1′-biphenyl]-3,3′-diyl)bis(methylene))bis(oxy))bis(2-((6-(1H-pyrazol-1-yl)pyridin-3-yl)methoxy)-5-chloro-4,1-phenylene))bis(methylene))bis(methylazanediyl))bis(3-hydroxybutanoic acid)], for which the half-inhibitory concentration (IC50) lay in the range of 20.1 to 90 nM.

Consider `COc1cc(OCc2cccc(-c3cccc(COc4cc(OCc5cncc(C#N)c5)c(CN(C)[C@@H](CCO)C(=O)O)cc4Cl)c3C)c2C)c(Cl)cc1CN(C)[C@@H](CCO)C(=O)O` [Example 5030, N-(4-((3′-((4-((((S)-1-carboxy-3-hydroxypropyl)(methyl)amino)methyl)-2-chloro-5-((5-cyanopyridin-3-yl)methoxy)phenoxy)methyl)-2,2′-dimethyl-[1,1′-biphenyl]-3-yl)methoxy)-5-chloro-2-methoxybenzyl)-N-methyl-L-homoserine], for which the half-inhibitory concentration (IC50) was in the range of 0.04 to 20 nM.

As for `COc1cc(OCc2cccc(-c3cccc(COc4cc(OCc5cncc(C#N)c5)c(CN(C)CCC(=O)O)cc4Cl)c3C)c2C)c(Cl)cc1CN(C)CCC(=O)O` [Example 5031, 3-((4-((3′-((4-(((2-carboxyethyl)(methyl)amino)methyl)-2-chloro-5-((5-cyanopyridin-3-yl)methoxy)phenoxy)methyl)-2,2′-dimethyl-[1,1′-biphenyl]-3-yl)methoxy)-5-chloro-2-methoxybenzyl)(methyl)amino)propanoic acid], the IC50 lay in the range of 0.04 to 20 nM.

On to `COc1cc(OCc2cccc(-c3cccc(COc4cc(OC)c(CNCc5cc[nH]n5)cc4Cl)c3C)c2C)c(Cl)cc1CNCc1cc[nH]n1` [Example 5032, 1,1′-((((2,2′-dimethyl-[1,1′-biphenyl]-3,3′-diyl)bis(methylene))bis(oxy))bis(5-chloro-2-methoxy-4,1-phenylene))bis(N-((1H-pyrazol-3-yl)methyl)methanamine)], for which the IC50 lay in the range of 0.04 to 20 nM.

As to `COc1cc(OCc2cccc(-c3cccc(COc4cc(OC)c(CNCc5cncnc5)cc4Cl)c3C)c2C)c(Cl)cc1CNCc1cncnc1` [Example 5033, 1,1′-((((2,2′-dimethyl-[1,1′-biphenyl]-3,3′-diyl)bis(methylene))bis(oxy))bis(5-chloro-2-methoxy-4,1-phenylene))bis(N-(pyrimidin-5-ylmethyl)methanamine)], the IC50 lay in the range of 0.04 to 20 nM.

`COc1cc(OCc2cccc(-c3cccc(COc4cc(OC)c(CNCc5cncs5)cc4Cl)c3C)c2C)c(Cl)cc1CNCc1cncs1` [Example 5034, 1,1′-((((2,2′-dimethyl-[1,1′-biphenyl]-3,3′-diyl)bis(methylene))bis(oxy))bis(5-chloro-2-methoxy-4,1-phenylene))bis(N-(thiazol-5-ylmethyl)methanamine)]: the IC50 is 20.1 to 90 nM.

With `COc1cc(OCc2cccc(-c3cccc(COc4cc(OC)c(CNCCC(=O)O)cc4Cl)c3C)c2C)c(Cl)cc1CNCCC(=O)O` [Example 5035, 3,3′-((((((2,2′-dimethyl-[1,1′-biphenyl]-3,3′-diyl)bis(methylene))bis(oxy))bis(5-chloro-2-methoxy-4,1-phenylene))bis(methylene))bis(azanediyl))dipropionic acid], the IC50 fell in the range of 0.04 to 20 nM.

`COc1cc(OCc2cccc(-c3cccc(COc4cc(OC)c(CN[C@@H](CCO)C(=O)O)cc4Cl)c3C)c2C)c(Cl)cc1CN[C@@H](CCO)C(=O)O` [Example 5036, (2S,2′S)-2,2′-((((((2,2′-dimethyl-[1,1′-biphenyl]-3,3′-diyl)bis(methylene))bis(oxy))bis(5-chloro-2-methoxy-4,1-phenylene))bis(methylene))bis(azanediyl))bis(4-hydroxybutanoic acid)]: the IC50 lay in the range of 0.04 to 20 nM.
